These results are taken from patent publication US20110165145A1, “IGF-II/IGF-IIE BINDING PROTEINS” (priority 2008, published 2011).

As usually defined, the IC50 is the point on the concentration scale where inhibition reaches its midpoint.

In one data set the test system is Colo205 cells. Briefly: Colo205 cell proliferation in complete medium containing 10% FBS. The class given is cell-based. The settings on record: 2 μM, 4 days. The method, then:
The plate was placed in a 37° C. incubator with 5% CO2 for 4 days. Proliferation was measured by CellTiter 96Aqueous One Solution Reagent (Promega). […] Colo205 cells have two cell populations in culture vessels.

Data set [1] concerns IGF-II induced Colo205 cell proliferation. Briefly: IGF-II induced Colo205 cell proliferation in serum free medium. The class given is cell-based. The conditions noted are these: 2 nM IGF-II, 96 h. How it is done: In this experiment, cells were cultured in serum free medium containing 2 nM IGF-II. […] Neutralizing IGF-II antibody (R&D Systems) was used at 333 nM as a positive control. […] IGF-II neutralizing antibody from R&D at 333 nM was used as a positive control. The plate was placed in a 37° C. incubator with 5% CO2 for 4 days. Proliferation was measured by CellTiter 96Aqueous One Solution Reagent (Promega).

Data set [2] has as its system IGF-IR phosphorylation in Colo205 cells. In words: IGF-IR phosphorylation in Colo205 cells. The class given is cell-based. The text has this: Upon ligand binding, IGF-1R undergoes autophosphorylation on tyrosine residues of the two β-subunits.
Data set [3] deals with autocrine IGF-II induced IGF-1R phosphorylation in Hep3B cells. In words: Autocrine (endogenous) IGF-II induced IGF-1R phosphorylation in Hep3B cells (IP/WB). The class given is cell-based. The conditions noted are these: 10 nM, 48 h serum free. The method, then: Hep3B cells synthesize and secrete IGF-II which in turn binds IGF-1R and induces IGF-1R phosphorylation in an autocrine fashion. The autocrine IGF-II induced IGF-1R phosphorylation can be detected by IP/WB analysis after 48 h serum starvation of cells. […] To perform the experiments, Hep3B cells were seeded and cultured for 24 h. […] After being washed twice with ice-cold PBS containing 1 mM sodium orthovanadate, cells were lysed and immunoprecipitated with anti-IGF-IR antibody. Immunoprecipitated proteins were resolved in a 4-12% Bis-tris gel, and transferred to a PVDF membrane. The membrane was probed with anti-phospho-IGF-IR (p-IGF-1R) antibody first, and then stripped and re-probed with anti-IGF-IR antibody for detection of total IGF-1R proteins.

The target of data set [4] is T1, IGF-IIE (Homo sapiens, UniProt P01344).
T1 construct: the construct comprising amino acids 1-104, which encompass the E domain
Briefly: SPR assays of DX-2647 binding to IGF-IIE complexed with receptors/IGFBPs. The conditions noted are these: FIGS. 5A and 5B. The text has this:
(§1) While the IGF-IR and IR-A are the principal mediators of the biological activity of IGF-II, the protein can bind with high affinity to a number of other proteins that include a family of six serum IGF-binding proteins (IGFBP 1-6), and the cell-surface mannose-6-phosphate receptor (IGF-IIR).
Background: SPR reads the build-up and loss of mass on a sensor chip optically.

The target of data set [5] is T1, IGF-IIE. In words: SPR affinity of DX-2647 (IgG captured on anti-human Fc chip), IGF-IIE. The conditions noted are these: 1:1 binding model.
Data set [6] relates to IGF-I induced IGF-IR phosphorylation. Briefly: IGF-I induced IGF-IR phosphorylation in Hep3B cells (IP/WB). The class given is cell-based. The settings on record: 10 nM DX-2647. The method, then: (§2) After being washed twice with ice-cold PBS containing 1 mM sodium orthovanadate, cells were lysed and immunoprecipitated with anti-IGF-IR antibody. Immunoprecipitated proteins were resolved in a 4-12% Bis-tris gel, and transferred to a PVDF membrane. The membrane was probed with anti-phospho-IGF-IR (p-IGF-1R) antibody first, and then stripped and re-probed with anti-IGF-IR antibody for detection of total IGF-1R proteins.

The target of data set [7] is T2, IGF-II (Homo sapiens, UniProt P01344).
T2 construct: IGF-II (amino acids 1-67)
Briefly: SPR affinity of DX-2647 (IgG captured on anti-human Fc chip), IGF-II. The settings on record: 1:1 binding model.

Data set [8] concerns IGF-II-induced IGF-1R phosphorylation in HepG2 cells. Briefly: IGF-II-induced IGF-1R phosphorylation in HepG2 cells (IP/WB). It counts as cell-based. The settings on record: 10 min. How it is done:
as §2

Data set [9] has as its system IGF-II-induced IGF-1R phosphorylation in Hep3B cells. Briefly: IGF-II-induced IGF-1R phosphorylation in Hep3B cells (IP/WB). It counts as cell-based. How it is done: as §2
Another data set concerns HepG2 cells. Briefly: HepG2 anchorage dependent colony formation. The settings on record: 1 nM; 10% FBS; 7 days. The class given is cell-based. How it is done: HepG2 cells were seeded into a 6-well plate at 1000 cells/well in 2 ml of culture medium containing 10% FBS. […] Isotype control IgG (Ctrl. IgG) was used at 100 nM. After incubation cells were fixed and stained with crystal violet blue. Five pictures were taken randomly from each well and data were analyzed using the MetaMorph software. The results are summarized graphically in FIG. 10.

Data set [10] deals with T2, IGF-II. Briefly: SPR assays of DX-2647 binding to IGF-II complexed with receptors/IGFBPs.
From the text: as §1

In another data set the test system is Hep3B cells. In words: Hep3B anchorage dependent colony formation assay. It counts as cell-based. The settings on record: two concentrations; 10% FBS; 1 week. An excerpt: Colonies>50 cells were scored in three independent experiments, each with triplicate dishes.
For another data set, the target named is IGF-I (Homo sapiens, UniProt P05019). In words: SPR affinity of DX-2647, IGF-I. The conditions noted are these: 1:1 binding model. An excerpt:
IGF-II and the related growth factor, IGF-I, share 70% homology at the amino acid level.

Data set [11] deals with human SKUT-1 myosarcoma cell. In words: Cisplatin (CDDP)-induced cytotoxicity in SKUT-1 cells (CellTitreBlue). It counts as cell-based. The settings on record: 20% FCS, 48 hours.
Data set [12] relates to HepG2 human hepatoma cells. Briefly: HepG2 anchorage-independent colony formation in soft agar. It counts as cell-based. The conditions noted are these: 10% FCS, two weeks. The method, then:
Cells were seeded in growth medium plus 10% FCS in soft agar in the presence of increasing concentrations of antibody. Colonies>50 cells were counted after two weeks. […]

The test system of data set [13] is human breast cancer cells. The conditions noted are these: immunodeficient mice; cited from earlier work.

T2 sequence (P01344 25-91): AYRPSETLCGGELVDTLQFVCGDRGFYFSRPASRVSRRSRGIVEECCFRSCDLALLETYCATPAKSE
T1 sequence (P01344 25-128): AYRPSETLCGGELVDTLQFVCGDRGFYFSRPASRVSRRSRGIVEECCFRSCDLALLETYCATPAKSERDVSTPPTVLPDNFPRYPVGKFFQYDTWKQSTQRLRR
Sequence of IGF-I (P05019 49-118 limits assumed, species assumed): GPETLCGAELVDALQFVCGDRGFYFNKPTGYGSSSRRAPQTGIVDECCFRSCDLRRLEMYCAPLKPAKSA

On to “DX-2647: IGF II/IGF IIE inhibitory antibody germlined from 566A-M0064-F02 parental clone; SEQ ID NO: 59 and 60”, for which the “inhibition of Colo205 proliferation in complete growth medium” value in the data set on Colo205 cells is recorded as “significantly inhibited”. In addition, the “inhibition of IGF-II induced Colo205 cell proliferation” value in [1] is “inhibited”. Besides, the “lowest concentration showing maximum potency in inhibiting IGF-II stimulated Colo205 proliferation” value in data set [1] (1 nM to 100 nM tested) turned out to be 10 nM. Further, in data set [2], the “effective concentration for inhibition of IGF-IR phosphorylation” value came to 10 nM. The “inhibition of autocrine IGF-II induced IGF-1R phosphorylation” value in [3] is reported as “significant inhibitory effect”. In the data set with IGF-IIE [4], the “ability to bind IGF-IIE complexed with the IGFBPs assayed” value is “inhibited” and the “blocking of IGF-IIE binding to all three cell-surface receptors for IGF-II” value is listed as “blocks the binding”. In the data set with IGF-IIE [5], the “ka IGF-IIE” value is 2.06 E6 M-1s-1 and the “kd IGF-IIE” value is recorded as “less than 2 E-5 s-1”. The “inhibition of IGF-I induced IGF-IR phosphorylation” value in data set [6] is listed as “failed to show significant inhibition”. For the same substance, in the data set with IGF-II [7], the “ka IGF-II” value is on record as 1.06 E6 M-1s-1 and the “kd IGF-II” value was 2.38 E-5 s-1. In addition, the “inhibition of IGF-II-induced IGF-1R phosphorylation” value in data set [8] (0.3 nM DX-2647, IGF-II 2.6 nM) is recorded as “Partial inhibition”. The “inhibition of IGF-II-induced IGF-1R phosphorylation” value in [8] (3 nM DX-2647, IGF-II 2.6 nM) was “complete inhibition”. Also, in [9] (0.1 nM DX-2647), the “inhibition of IGF-II-induced IGF-1R phosphorylation” value is “partial inhibition”. Besides, in data set [9] (1 nM DX-2647), the “inhibition of IGF-II-induced IGF-1R phosphorylation” value is “complete inhibition”. In the data set with HepG2 cells, the “inhibition of colony-forming ability of HepG2 cells” value is given as “significantly inhibited”. Also, in the data set with IGF-II [10] (FIGS. 5A and 5B), the “ability to bind IGF-II complexed with the IGFBPs assayed” value is “inhibited” and the “blocking of IGF-II binding to all three cell-surface receptors for IGF-II” value was “blocks the binding”. In the data set with IGF-II [10] (Fc-captured antibody, FIG. 5A), the “binding to IGFBP-1 alone” value is “does not bind”; the “binding to free IGF-II” value is “binds free IGF-II”; the “binding to pre-formed complex of IGF-II and IGFBP-1” value is “does not bind”. In the data set on Hep3B cells, the “inhibition of colony formation of Hep3B cells” value was “inhibited colony formation in a dose-dependent manner”. Moreover, in the data set with IGF-I, the “ka IGF-I” value was 5.8e+06 M⁻¹ s⁻¹ and the “kd IGF-I” value amounted to 0.1 s⁻¹. Besides, the “enhancement of cisplatin (CDDP)-induced cellular cytotoxicity” value in [11] was “potently enhanced”. In data set [12], the “inhibition of HepG2 colony formation in soft agar” value is reported as “strongly inhibited”. Besides, the IC50 in [12] (±0.74 standard error, read-out: mean IC50, anchorage-independent growth of HepG2 cells) was 1.5 nM.
“pegvisomant: PEGylated analog of human growth hormone, 191 amino acid residues, acting as GH receptor antagonist”: the “growth of human breast cancer cells grown as xenografts” value in data set [13] was “inhibits the growth”.
